What all share (format): cell-based
The subject of one data set is K562 neoplastic cells. In words: Cytotoxic activity by flow cytometry with 7-AAD staining, K562. Conditions: Homo sapiens, K562, 24 h, read-out: Cytotoxic activity IC50, K562.
A short description of data set [1]: Cytotoxic activity by flow cytometry with 7-AAD staining, HEK293. Conditions: human. In general terms: Flow cytometry measures light scatter and fluorescence of single cells or particles in a stream.
A further data set deals with U937 neoplastic cells. In words: Cytotoxic activity by flow cytometry with 7-AAD staining, U937. The settings on record: Homo sapiens, U-937, 24 h, read-out: Cytotoxic activity IC50, U937.
The subject of another data set is Jurkat neoplastic cells. In words: Cytotoxic activity by flow cytometry with 7-AAD staining, Jurkat. The settings on record: Homo sapiens, 24 h, read-out: Cytotoxic activity IC50, Jurkat.

As usually defined, the IC50 is the concentration needed to halve the response being measured. For the compound `Cc1n[nH]c(C)c1CSc1ccccc1` [Compound 4a, 3,5-Dimethyl-4-[(phenylsulfanyl)methyl]-1H-pyrazole], the IC50 stood at 2890 ± 30 nM with K562 neoplastic cells, 2940 ± 30 nM with U937 neoplastic cells and 2470 ± 30 nM with Jurkat neoplastic cells. The same compound showed an IC50 at 24 h in data set [1] of 3800 ± 30 nM.

In the case of `Cc1n[nH]c(C)c1CSCc1ccccc1` [Compound 4b, 4-[(Benzylsulfanyl)methyl]-3,5-dimethyl-1H-pyrazole], the IC50 in the data set with K562 neoplastic cells was 1980 ± 60 nM; in the data set on U937 neoplastic cells it was 2150 ± 60 nM; with Jurkat neoplastic cells, 1240 ± 50 nM. Moreover, 2980 ± 60 nM corresponded to half-maximal inhibition in data set [1] (IC50 at 24 h).

With `Cc1n[nH]c(C)c1CSC1CCCCC1` [Compound 4c, 4-[(Cyclohexylsulfanyl)methyl]-3,5-dimethyl-1H-pyrazole], the IC50 worked out at 2160 ± 60 nM in the data set with K562 neoplastic cells, 1980 ± 70 nM in the data set with U937 neoplastic cells and 1490 ± 60 nM with Jurkat neoplastic cells. The compound also came in with an IC50 at 24 h in data set [1] of 3150 ± 50 nM.

Take `Cc1n[nH]c(C)c1CSc1ccc(O)cc1` [Compound 4d, 4-{[(3,5-Dimethyl-1H-pyrazol-4-yl)methyl]sulfanyl}-phenol]: the values for the IC50 with K562 neoplastic cells, with U937 neoplastic cells and with Jurkat neoplastic cells were 2340 ± 10 nM, 2270 ± 20 nM and 1890 ± 20 nM, respectively. Also, the concentration for half-maximal inhibition (IC50) at 24 h in data set [1] stood at 3340 ± 80 nM.

These data come from PMC9052211 (RSC Advances, 2020).
